Tests used:
[1] = system: KNS-89; assay: Intracellular glycolytic intermediates (LC-MS/MS); type: cell-based, human; details: KNS-89, 1.6 mM, 36 h
[2] = system: glioma cells SHG-44; assay: Lactic acid released by glioma cells (glycolysis); type: cell-based, human
Protocol: (§2) Human glioma cell strains (U87-MG, KNS-89, SHG-44) were respectively incubated in culture media containing 0.8 mM of trisodium fructose-1,6-bisphosphate salt, and 1.6 mM of trisodium fructose-1,6-bisphosphate salt, and 1.6 mM of 2-deoxyglucose, and the contents of lactic acid as the final glycolytic product released by the cells in the culture media were measured after 12 h, 24 h, 36 h, and 48 h. […] Human glioma cell strain (U87-MG) was incubated in the culture medium containing 0.8 mM of trisodium fructose-1,6-bisphosphate salt for 1 h, 3 h, 6 h, 12 h, 24 h, 36 h, and 48 h, and level changes of key metabolic enzymes in the glycolytic pathway of cells were measured by Western Blot at the respective time points.

[3] = system: U87-MG; assay: Western Blot of key glycolytic enzymes; type: cell-based, human; details: 0.8 mM, 1 h to 48 h
Protocol: as §2

[4] = system: C6; assay: Mitochondrial oxidative phosphorylation in glioma cells (ATP/ADP, NADH/NAD+, ATP); type: cell-based, rat
[5] = system: KNS-89; assay: as above; type: cell-based, human
[6] = system: U87MG; assay: Western Blot of metabolic enzymes and epigenetic proteins, 5-hmC immunocytochemistry; type: cell-based, human; details: 1.6 mM
Protocol: Human glioma cell strain (U87MG) was cultured in a medium containing 1.6 mM of trisodium fructose-1,6-bisphosphate for 36 h, and then cytoplasm and mitochondria were separated. Levels of tricarboxylic acid circulation intermediates in cytoplasm and mitochondria were respectively measured by LC-MS/MS.
Human glioma cell strain (U87MG) was respectively cultured in the medium containing 1.6 mM of trisodium fructose-1,6-bisphosphate for 0, 1, 3, 6, 12, 24, 36, and 48 h, and the changes of protein levels of enzymes related to fatty acid and nucleic acid biosynthetic pathway were investigated by Western Blot (WB).
Human glioma cell strain (U87MG) was respectively cultured in the medium containing 1.6 mM of trisodium fructose-1,6-bisphosphate for 24 h and 36 h, and then a level of 5-hydroxymethylcytosine (5-hmC) was measured by an immunocytochemistry method.

[7] = system: C6; assay: Reactive oxygen species and mitochondrial membrane potential; type: cell-based, rat; details: C6, 0.8 mM
[8] = system: C6; assay: Glutathiones and NADPH/NADP+ (LC-MS/MS); type: cell-based, rat; details: C6, 1.6 mM, 36 h
Protocol: (§1) Rat glioma cell strain (C6) and human glioma cell strain (KNS-89, SHG-44) were respectively cultured in a medium containing 1.6 mM of trisodium fructose-1,6-bisphosphate for 36 h, and important antioxidants in cells were measured by liquid-mass spectrometry (LC-MS/MS).

[9] = system: KNS-89; assay: Glutathiones and NADPH/NADP+ (LC-MS/MS); type: cell-based, human; details: KNS-89, 1.6 mM, 36 h
Protocol: as §1

[10] = system: SHG-44; assay: Glutathiones and NADPH/NADP+ (LC-MS/MS); type: cell-based, human; details: SHG-44, 1.6 mM, 36 h
Protocol: as §1

[11] = system: Huh-7; assay: Cell viability, Sulforhodamine B (SRB) staining; type: cell-based, human; details: Homo sapiens, Huh-7, 72 h, FBP 0.8 mM
Protocol: (§3) Human liver cancer cell strains Bel-7402 and huh-7, which had been incubated for 24 hours, were respectively incubated in a medium containing 1.6 mM or 0.8 mM of trisodium fructose-1,6-bisphosphate, a medium containing 0.2 mM of metformin or 25 μM of sitagliptin, and a medium containing 0.8 mM of trisodium fructose-1,6-bisphosphate and 0.2 mM of metformin/25 μM of sitagliptin for 72 h. A control group (Con) was not treated with the agent. Cell viability was determined by Sulforhodamine B (SRB) staining analysis method.

[12] = healthy volunteers, intravenous infusion 250 mg/kg, cited from earlier work
[13] = system: SW620; assay: cells; details: Homo sapiens, SW-620, 72 h
Protocol: Human intestinal cancer cell strains SW620 and HCT-8, which had been incubated for 24 hours, were respectively incubated in a medium containing 0.8 mM of trisodium fructose-1,6-bisphosphate, a medium containing 0.2 mM of metformin/100 μM of sitagliptin, and a medium containing 0.8 mM of trisodium fructose-1,6-bisphosphate and 0.2 mM of metformin/100 μM of sitagliptin for 72 h. A control group (Con) was not treated with the agent. Cell viability was determined by Sulforhodamine B (SRB) staining analysis method.

[14] = system: Bel-7402; assay: cells; details: Homo sapiens, Bel-7402, 72 h, read-out: cell viability inhibited
Protocol: as §3

Structure (SMILES): O=C(COP(=O)(O)O)[C@@H](O)[C@H](O)[C@H](O)COP(=O)(O)O [FBP, fructose-1,6-bisphosphate]
- Increase folds of intracellular DHAP (compared with the control group) [1]: 8.74 folds
- Increase folds of intracellular F6P (compared with the control group) [1]: 1.89 folds
- Increase folds of intracellular FBP (compared with the control group) [1]: 21.97 folds
- Increase folds of intracellular GAP (compared with the control group) [1]: 19.75 folds
- Increase folds of intracellular PGA (compared with the control group) [1]: 3.28 folds
- Relative levels of lactic acid (compared with the control group) ([2]; SHG-44, 0.8 mM, 12 h): 1.06 ± 0.05
- Relative levels of lactic acid (compared with the control group) ([2]; SHG-44, 0.8 mM, 24 h): 0.87 ± 0.01
- Relative levels of lactic acid (compared with the control group) ([2]; SHG-44, 0.8 mM, 36 h): 0.83 ± 0.05
- Relative levels of lactic acid (compared with the control group) ([2]; SHG-44, 1.6 mM, 12 h): 0.89 ± 0.09
- Relative levels of lactic acid (compared with the control group) ([2]; SHG-44, 1.6 mM, 24 h): 0.75 ± 0.07
- Relative levels of lactic acid (compared with the control group) ([2]; SHG-44, 1.6 mM, 36 h): 0.58 ± 0.06
- levels of HK2, PFKFB3, PKM2 and LDH5 (Western Blot) [3]: quickly and continuously down-regulated
- ratio of ATP/ADP (CON = 1.00) ([4]; C6, 0.8 mM or 1.6 mM, 36 h): 10.89 ± 1.37
- ratio of NADH/NAD+ (CON = 1.00) ([4]; C6, 0.8 mM or 1.6 mM, 36 h): 7.76 ± 0.59
- ATP level ([4]; C6, 36 h, vs control group): significantly increased
- ratio of ATP/ADP (CON = 1.00) ([5]; KNS-89, 0.8 mM or 1.6 mM, 36 h): 2.91 ± 0.03
- ratio of NADH/NAD+ (CON = 1.00) ([5]; KNS-89, 0.8 mM or 1.6 mM, 36 h): 9.44 ± 0.75
- ATP level ([5]; KNS-89, 36 h, vs control group): significantly increased
- epigenetic related proteins of tumor cells (Ac-Foxo, H3K9ac, H3K9me2) [6]: quickly down-regulated
- protein levels of malate shuttle-related enzymes (ME1, MDH1, MDH2, GOT1, GOT2) [6]: decreased significantly over time
- protein levels of enzymes related to fatty acid and nucleic acid biosynthesis (CAD, TS, ACL, FASN) ([6]; 0-48 h, Western Blot): decreased significantly over time
- level of 5-hydroxymethylcytosine (5-hmC) ([6]; 24 h and 36 h, immunocytochemistry): significantly increased
- Relative level of mitochondrial membrane potential (compared with the control group) ([7]; 12 h): 0.8 ± 0.14
- Relative level of reactive oxygen species (compared with the control group) ([7]; 12 h): 1.26 ± 0.04
- Relative level of mitochondrial membrane potential (compared with the control group) ([7]; 24 h): 0.6 ± 0.11
- Relative level of reactive oxygen species (compared with the control group) ([7]; 24 h): 1.89 ± 0.03
- Relative level of mitochondrial membrane potential (compared with the control group) ([7]; 48 h): 0.1 ± 0.09
- Relative level of mitochondrial membrane potential (compared with the control group) ([7]; 72 h): 0.1 ± 0.07
- Relative content of GSH (compared with the control group) [8]: 0.69 ± 0.01
- Relative content of GSSG (compared with the control group) [8]: 0.06 ± 0.00
- Relative ratio of NADPH to NADP+ (compared with the control group) [8]: 0.14 ± 0.01
- Relative content of GSH (compared with the control group) [9]: 0.01 ± 0.00
- Relative content of GSSG (compared with the control group) [9]: 0.33 ± 0.02
- Relative ratio of NADPH to NADP+ (compared with the control group) [9]: 0.44 ± 0.04
- Relative content of GSH (compared with the control group) [10]: 0.67 ± 0.01
- Relative content of GSSG (compared with the control group) [10]: 0.38 ± 0.01
- Relative ratio of NADPH to NADP+ (compared with the control group) [10]: 0.39 ± 0.01
- viability at 800 µM ([11]; STG 25 μM, read-out: cell viability (Con = 100)): 80.4 ± 3.63%
- cytotoxicity at 800 µM ([11]; sitagliptin 25 μM, read-out: cell viability inhibited): 20%
- blood concentration ([12]; within 5 minutes): 770 mg/L
- half-life [12]: 10 to 15 min
- viability at 800 µM ([13]; read-out: cell viability (Con = 100)): 49.9 ± 3.91%
- cytotoxicity at 800 µM ([13]; read-out: cell viability inhibited): 41%
- cytotoxicity at 800 µM [14]: 41%

Source: patent US20200246364A1, “MEDICAL APPLICATION OF COMPOSITION OF FRUCTOSE-1,6-BISPHOSPHATE AND BLOOD CONCENTRATION STABILIZER THEREOF” (ZHEJIANG UNIVERSITY, priority 2017, published 2020)
